Measurements as given in US20030022812A1, “Treating pain by targeting hyperpolarization-activated, cyclic nucleotide-gated channels” (priority 2001, published 2003).

Experiments:
[1] = biological target: T1, human HCN3 (Homo sapiens, UniProt Q9P1Z3); assay: Whole cell patch clamp of HEK293 cells stably expressing human HCN3; assay type: cell-based; conditions: for reversibility of HCN3 current block: ZD7288: washout of at least 15 min
T1 construct: expressed in transfected cells; host or cells: HEK293 cells stably transfected with hHCN3-pcDNA3.1 Zeo
T1 sequence (Q9P1Z3 1-774): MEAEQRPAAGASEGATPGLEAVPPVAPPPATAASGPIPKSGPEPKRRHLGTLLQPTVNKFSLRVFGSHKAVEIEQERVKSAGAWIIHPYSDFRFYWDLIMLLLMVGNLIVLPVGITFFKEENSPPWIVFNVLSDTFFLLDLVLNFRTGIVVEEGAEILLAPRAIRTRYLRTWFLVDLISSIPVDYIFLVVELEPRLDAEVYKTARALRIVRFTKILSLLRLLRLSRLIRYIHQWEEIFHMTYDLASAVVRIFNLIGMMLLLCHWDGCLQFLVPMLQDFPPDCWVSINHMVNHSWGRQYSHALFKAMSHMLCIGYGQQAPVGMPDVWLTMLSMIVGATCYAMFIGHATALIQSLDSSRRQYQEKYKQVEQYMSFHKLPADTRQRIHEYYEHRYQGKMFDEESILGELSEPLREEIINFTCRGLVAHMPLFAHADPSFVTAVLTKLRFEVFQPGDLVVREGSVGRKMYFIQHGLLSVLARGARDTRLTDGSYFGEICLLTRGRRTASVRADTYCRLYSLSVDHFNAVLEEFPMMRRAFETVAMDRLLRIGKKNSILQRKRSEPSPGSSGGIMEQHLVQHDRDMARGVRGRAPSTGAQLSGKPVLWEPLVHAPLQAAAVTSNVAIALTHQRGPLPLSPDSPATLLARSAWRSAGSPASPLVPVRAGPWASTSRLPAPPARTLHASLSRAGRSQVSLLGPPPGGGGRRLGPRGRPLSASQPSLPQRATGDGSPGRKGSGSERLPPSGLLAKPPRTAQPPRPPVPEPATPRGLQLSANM

[2] = tested on: Ih in large DRG neurons; assay: Whole cell patch clamp of Ih in dissociated large L5 DRG neurons of SNL and control rats; assay type: cell-based, rat; conditions: Cs+ 3 mM extracellular; ZD7288 50 μM
Procedure: Methods: Rats were prepared according to the above SNL model (L5 ligation). Sham rats were prepared identically, but without resection of the transverse process to avoid nerve trauma, and without nerve ligation. After 7 days, rats were killed by cervical dislocation and the ipsilateral L4 (no ligation) and L5 DRGs were quickly excised with fine forceps under a stereomicroscope and placed in ice cold Tyrode's containing pen/strep antibiotics.
Dissociation and culture of DRG neurons: DRGs from the L5 level of SNL, sham ligated and naive rats, and the L4 level of SNL rats were removed and maintained in ice-cold Tyrode's solution (140 mM NaCl, 4 mM KCl, 2 mM CaCl2, 1.3 mM MgCl2, 10 mM D-glucose, 10 mM HEPES, pH adjusted to 7.4 with NaOH) with additional 2 mM Ca^+2 (Tyrode's) prior to dissociation. […]
Current and voltage signals were detected and filtered at 2 kHz with an Axopatch 1D patch-clamp amplifier (Axon Instruments, Foster City, Calif.), digitally recorded with a DigiData 1200B laboratory interface (Axon Instruments), and PC compatible computer system and stored on magnetic disk for off-line analysis. […]

CCN(c1ccccc1)c1cc(=NC)n(C)c(C)n1.Cl [ZD7288]
block of HCN3 hyperpolarization-induced currents ([1]; 50 μM, n=3): 98+/−2% | reversibility of HCN3 current block [1]: did not reverse | block of Ih in large DRG neurons [2]: efficacious block

[Cl-].[Cs+] [Cs^+, CsCl]
block of HCN3 hyperpolarization-induced inward currents ([1]; 3 mM CsCl): completely blocked | reversibility of HCN3 current block [1]: rapidly reversible | block of Ih in large DRG neurons [2]: efficacious block
